From patent publication US7335632B2, “Beta-secretase inhibitors and methods of use thereof” (CoMentis, Inc., priority 2001, dated 2008)

Legend:
[1] = test system: Aβ production; assay: Cellular Aβ IC50 determination (Aβ40 sandwich ELISA); format: cell-based; conditions: Cricetulus griseus, Chinese hamster ovary cells over-expressing human APP695 with London and Swedish mutations, 24 h
Protocol: The potency of compounds against memapsin 2 activity was determined in a cellular assay of Aβ production. […] Chinese hamster ovary cells that over-express human APP695 with the London and Swedish mutations were seeded in multi-well plates at 10% confluency. Compounds were dissolved in DMSO to concentrations near 1 mM, and diluted into culture media to a final concentration near 4 μM (final 0.4% DMSO). Compounds were diluted serially and applied to cells in multi-well plates 48 h after seeding. Incubation was continued in 5% CO2 at 37 degrees C. for 24 h. Aliquots were removed and assayed for Aβ40 content using a sandwich ELISA (BioSource International). Amount of Aβ40 over the range of concentration of compounds, relative to control incubations, were fit to a 4-parameter IC50 model.

[2] = target: Cathepsin D (Homo sapiens, UniProt P07339); assay: Inhibition of cathepsin D activity (substrate peptide […], MALDI-TOF); format: biochemical; conditions: pH 4.1, 37 degrees C., substrate NH3-[…]-CO2, MALDI-TOF; read-out: Cath D Ki
Sequence of Cathepsin D (P07339 65-412, species assumed): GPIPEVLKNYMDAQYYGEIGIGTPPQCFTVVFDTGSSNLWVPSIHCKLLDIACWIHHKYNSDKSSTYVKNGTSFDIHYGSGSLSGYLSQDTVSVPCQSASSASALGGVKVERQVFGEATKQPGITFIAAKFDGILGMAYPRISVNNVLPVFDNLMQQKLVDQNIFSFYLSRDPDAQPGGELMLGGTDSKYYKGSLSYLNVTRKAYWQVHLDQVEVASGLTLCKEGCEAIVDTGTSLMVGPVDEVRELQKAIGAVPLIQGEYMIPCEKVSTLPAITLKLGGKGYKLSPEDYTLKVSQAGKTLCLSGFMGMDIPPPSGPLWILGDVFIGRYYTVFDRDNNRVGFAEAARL

[3] = target: memapsin 2 (Homo sapiens, UniProt P56817); assay: Inhibition of memapsin 2 beta-secretase activity toward fluorogenic substrate FS-2; format: biochemical; conditions: pH 4, 37° C., 20 minutes pre-incubation, substrate FS-2, tight-binding model; read-out: M2 Ki
Sequence of memapsin 2 (P56817 46-501): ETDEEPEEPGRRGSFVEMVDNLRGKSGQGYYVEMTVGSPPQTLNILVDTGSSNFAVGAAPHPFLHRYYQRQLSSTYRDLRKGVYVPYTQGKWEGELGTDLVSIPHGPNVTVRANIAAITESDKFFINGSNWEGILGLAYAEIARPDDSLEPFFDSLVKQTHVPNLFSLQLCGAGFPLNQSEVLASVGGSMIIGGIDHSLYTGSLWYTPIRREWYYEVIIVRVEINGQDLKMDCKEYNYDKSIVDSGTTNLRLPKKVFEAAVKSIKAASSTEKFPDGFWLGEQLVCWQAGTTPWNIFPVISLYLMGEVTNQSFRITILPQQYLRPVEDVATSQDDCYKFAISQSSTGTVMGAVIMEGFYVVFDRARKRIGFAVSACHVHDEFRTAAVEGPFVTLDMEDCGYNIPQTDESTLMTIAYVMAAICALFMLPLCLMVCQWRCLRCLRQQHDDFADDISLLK
Protocol: Potency of compounds were determined by measurement of their inhibition of memapsin 2 activity toward a fluorescent substrate. […] Briefly, assays were performed at pH 4, 37° C., by pre-incubation of memapsin 2 enzyme with compound for 20 minutes. Activity measure was initiated by addition of a fluorogenic substrate FS-2 (Bachem Americas, Torrance, Calif.). Fluorescent signal increase over time was measured as a rate of hydrolysis of the peptide substrate.

[4] = target: T1, memapsin 1 (Homo sapiens, UniProt Q9Y5Z0); assay: Inhibition of memapsin 1 beta-secretase activity (substrate peptide […], MALDI-TOF); format: biochemical; conditions: pH 4.1, 37 degrees C., substrate NH3-ELDLAVEFWHDR-CO2, MALDI-TOF; read-out: M1 Ki
T1 sequence (Q9Y5Z0 63-518): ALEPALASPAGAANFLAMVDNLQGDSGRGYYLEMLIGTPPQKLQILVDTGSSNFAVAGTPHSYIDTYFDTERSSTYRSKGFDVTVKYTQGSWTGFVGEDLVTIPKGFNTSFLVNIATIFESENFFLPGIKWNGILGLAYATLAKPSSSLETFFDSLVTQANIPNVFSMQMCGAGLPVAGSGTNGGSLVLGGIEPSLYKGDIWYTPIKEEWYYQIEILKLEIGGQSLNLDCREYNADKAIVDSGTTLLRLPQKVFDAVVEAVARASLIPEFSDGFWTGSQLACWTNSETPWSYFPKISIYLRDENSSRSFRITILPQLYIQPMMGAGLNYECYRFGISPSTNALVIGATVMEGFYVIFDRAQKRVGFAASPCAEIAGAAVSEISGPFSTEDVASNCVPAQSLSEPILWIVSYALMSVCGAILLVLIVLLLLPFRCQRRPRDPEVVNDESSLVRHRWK

IC50 [1] | Ki [2] | Ki [3] | Ki [4] | Compound
< 6000 nM | < 100 nM | < 100 nM | 100 to 1000 nM | CC[C@@H](Cn1nc(C)cc1C)C(=O)N[C@@H](CSC)C(=O)N[C@H](CC(C)C)[C@@H](O)C[C@@H](C)C(=O)N[C@@H](C(=O)NCC(C)C)C(C)C [Structure 3]
6000 to 100000 nM | < 100 nM | 100 to 1000 nM | 100 to 1000 nM | CSC[C@H](NC(=O)CCn1nc(C)cc1C)C(=O)N[C@H](CC(C)C)[C@@H](O)C[C@@H](C)C(=O)N[C@@H](C(=O)NCC(C)C)C(C)C [Structure 4]
> 100000 nM | 100 to 1000 nM | < 100 nM | 100 to 1000 nM | Cc1cc(C)n(CCC(=O)N[C@@H](CS(C)(=O)=O)C(=O)N[C@@H](CC(C)C)[C@@H](O)C[C@@H](C)C(=O)N[C@@H](C(=O)NCC(C)C)C(C)C)n1 [Structure 5]
> 100000 nM | < 100 nM | < 100 nM | < 100 nM | CC[C@@H](Cn1nc(C)cc1C)C(=O)N[C@@H](CS(C)(=O)=O)C(=O)N[C@@H](CC(C)C)[C@@H](O)C[C@@H](C)C(=O)N[C@@H](C(=O)NCC(C)C)C(C)C [Structure 7]
< 6000 nM | 100 to 1000 nM | < 100 nM | < 100 nM | CC[C@@H](Cn1nc(C)cc1C)C(=O)N[C@@H](C[S+](C)[O-])C(=O)N[C@@H](CC(C)C)[C@@H](O)C[C@@H](C)C(=O)N[C@@H](C(=O)NCC(C)C)C(C)C (some centres unmarked) [Structure 8]
< 6000 nM | 100 to 1000 nM | < 100 nM | < 100 nM | Cc1cc(C)n(COC(=O)N[C@@H](C[S+](C)[O-])C(=O)N[C@@H](CC(C)C)[C@@H](O)C[C@@H](C)C(=O)N[C@H](C(=O)NCC(C)C)C(C)C)n1 (some centres unmarked) [Structure 9]
6000 to 100000 nM | 100 to 1000 nM | < 100 nM | 100 to 1000 nM | Cc1csc(COC(=O)N[C@@H](CS(C)(=O)=O)C(=O)N[C@H](CC(C)C)[C@@H](O)C[C@@H](C)C(=O)N[C@@H](C(=O)NCC(C)C)C(C)C)n1 [Structure 16]
6000 to 100000 nM | < 100 nM | < 100 nM | 100 to 1000 nM | CSC[C@H](NC(=O)OCc1nc(C)cs1)C(=O)N[C@H](CC(C)C)[C@@H](O)C[C@@H](C)C(=O)N[C@@H](C(=O)NCC(C)C)C(C)C [Structure 17]
> 100000 nM | < 100 nM | < 100 nM | < 100 nM | C=CCS(=O)(=O)C[C@H](NC(=O)CCn1nc(C)cc1C)C(=O)N[C@H](CC(C)C)[C@@H](O)C[C@@H](C)C(=O)N[C@@H](C(=O)NCC(C)C)C(C)C [Structure 18]
> 100000 nM | < 100 nM | < 100 nM | < 100 nM | CCSC[C@H](NC(=O)OCc1nc(C)cs1)C(=O)N[C@H](CC(C)C)[C@@H](O)C[C@@H](C)C(=O)N[C@@H](C(=O)NCC(C)C)C(C)C [Structure 19]
< 6000 nM | 100 to 1000 nM | < 100 nM | 100 to 1000 nM | CCS(=O)(=O)C[C@H](NC(=O)OCc1nc(C)cs1)C(=O)N[C@H](CC(C)C)[C@@H](O)C[C@@H](C)C(=O)N[C@@H](C(=O)NCC(C)C)C(C)C [Structure 22]
< 6000 nM | < 100 nM | < 100 nM | 100 to 1000 nM | CSC[C@H](NC(=O)OCc1nc(C)oc1C)C(=O)N[C@H](CC(C)C)[C@@H](O)C[C@@H](C)C(=O)N[C@@H](C(=O)NCC(C)C)C(C)C [Structure 29]
< 6000 nM | 100 to 1000 nM | < 100 nM | 100 to 1000 nM | COCCOCS(=O)(=O)C[C@H](NC(=O)OCc1nc(C)cs1)C(=O)N[C@H](CC(C)C)[C@@H](O)C[C@@H](C)C(=O)N[C@@H](C(=O)NCC(C)C)C(C)C [Structure 30]
6000 to 100000 nM | 100 to 1000 nM | < 100 nM | 100 to 1000 nM | Cc1csc(COC(=O)N[C@@H](CS(=O)(=O)C(C)C)C(=O)N[C@H](CC(C)C)[C@@H](O)C[C@@H](C)C(=O)N[C@@H](C(=O)NCC(C)C)C(C)C)n1 [Structure 31]
< 6000 nM | < 100 nM | < 100 nM | 100 to 1000 nM | Cc1csc(COC(=O)N[C@@H](CSC(C)C)C(=O)N[C@H](CC(C)C)[C@@H](O)C[C@@H](C)C(=O)N[C@@H](C(=O)NCC(C)C)C(C)C)n1 [Structure 32]
< 6000 nM | < 100 nM | < 100 nM | 100 to 1000 nM | CSC[C@H](NC(=O)C(C)Cc1nc(C)cs1)C(=O)N[C@H](CC(C)C)[C@@H](O)C[C@@H](C)C(=O)N[C@@H](C(=O)NCC(C)C)C(C)C (some centres unmarked) [Structure 34]
> 100000 nM | 100 to 1000 nM | < 100 nM | 100 to 1000 nM | COCS(=O)(=O)C[C@H](NC(=O)OCc1nc(C)cs1)C(=O)N[C@H](CC(C)C)[C@@H](O)C[C@@H](C)C(=O)N[C@@H](C(=O)NCC(C)C)C1CCCCC1 [Structure 35]
< 6000 nM | < 100 nM | < 100 nM | < 100 nM | COCSC[C@H](NC(=O)OCc1nc(C)cs1)C(=O)N[C@H](CC(C)C)[C@@H](O)C[C@@H](C)C(=O)N[C@@H](C(=O)NCC(C)C)C(C)C [Structure 36]
> 100000 nM | 100 to 1000 nM | < 100 nM | 100 to 1000 nM | Cc1csc(CC(C)C(=O)N[C@@H](CS(C)(=O)=O)C(=O)N[C@H](CC(C)C)[C@@H](O)C[C@@H](C)C(=O)N[C@@H](C(=O)NCC(C)C)C(C)C)n1 (some centres unmarked) [Structure 37]
> 100000 nM | < 100 nM | < 100 nM | 100 to 1000 nM | CSC[C@H](NC(=O)CCc1nc(C)cs1)C(=O)N[C@H](CC(C)C)[C@@H](O)C[C@@H](C)C(=O)N[C@@H](C(=O)NCC(C)C)C(C)C [Structure 39]
> 100000 nM | 100 to 1000 nM | < 100 nM | 100 to 1000 nM | Cc1csc(CCC(=O)N[C@@H](CS(C)(=O)=O)C(=O)N[C@H](CC(C)C)[C@@H](O)C[C@@H](C)C(=O)N[C@@H](C(=O)NCC(C)C)C(C)C)n1 [Structure 40]
6000 to 100000 nM | < 100 nM | < 100 nM | 100 to 1000 nM | CSC[C@H](NC(=O)OCc1nc(C)cs1)C(=O)N[C@H](CC(C)C)[C@@H](O)C[C@@H](C)C(=O)N[C@H](CC(C)C)C(=O)NC(C)C [Structure 43]
< 6000 nM | 100 to 1000 nM | < 100 nM | 100 to 1000 nM | Cc1csc(COC(=O)N[C@@H](CS(C)(=O)=O)C(=O)N[C@H](CC(C)C)[C@@H](O)C[C@@H](C)C(=O)N[C@H](CC(C)C)C(=O)NC(C)C)n1 [Structure 46]
< 6000 nM | < 100 nM | < 100 nM | 100 to 1000 nM | Cc1csc(COC(=O)N[C@@H](CSCC(C)C)C(=O)N[C@H](CC(C)C)[C@@H](O)C[C@@H](C)C(=O)N[C@@H](C(=O)NCC(C)C)C(C)C)n1 [Structure 47]
< 6000 nM |  | > 1000 nM |  | CSC[C@H](NC(=O)OCc1nc(C)cs1)C(=O)N[C@H](CC(C)C)[C@@H](O)C[C@@H](C)C(=O)N[C@@H](C(N)=O)C(C)C [Structure 90]
> 100000 nM |  | < 100 nM |  | Cc1nc(COC(=O)N[C@@H](CS(C)(=O)=O)C(=O)N[C@H](CC(C)C)[C@@H](O)C[C@@H](C)C(=O)N[C@@H](C(=O)NCc2ccccn2)C(C)C)c(C)o1 [Structure 91]
< 6000 nM |  |  |  | CC[C@H](C[C@H](O)[C@@H](CC(C)C)NC(=O)[C@H](CS(C)(=O)=O)NC(=O)OCc1nc(C)oc1C)C(=O)N[C@@H](C(=O)NCC(C)C)C(C)C [Structure 92]
 | < 100 nM | 100 to 1000 nM | 100 to 1000 nM | CSC[C@H](NC(=O)OCc1nc(C)oc1C)C(=O)N[C@@H](CC(C)C)[C@@H](O)C[C@@H](C)C(=O)N[C@H](C(=O)Nc1nccs1)C(C)C [Structure 96]
 | < 100 nM | < 100 nM | 100 to 1000 nM | CSC[C@H](NC(=O)[C@@H](C)Cc1nc(C)oc1C)C(=O)N[C@@H](CC(C)C)[C@@H](O)C[C@@H](C)C(=O)N[C@H](C(=O)NCC(C)C)C(C)C [Structure 97]
 | < 100 nM | > 1000 nM | 100 to 1000 nM | COc1ccc(C[C@H](NC(=O)[C@H](CS(C)(=O)=O)NC(=O)OCc2nc(C)oc2C)[C@@H](O)C[C@@H](C)C(=O)N[C@H](C(=O)NCC(C)C)C(C)C)cc1 [Structure 98]
